Experiments:
in vitro [1] = details: human
Description: Cytotoxicity against human SH-SY5Y cells assessed as cell viability at 40 uM after 24 hrs by MTT assay

in vitro [2] = details: human; remark: listed apart in the source
Description: Cytotoxicity against human SH-SY5Y cells assessed as cell viability at 80 uM after 24 hrs by MTT assay

Cholinesterase = Cholinesterase (Equus caballus, UniProt P81908); assay: Inhibition of equine serum BuChE using BTCI as substrate preincubated for 30 mins followed by substrate addition measured after 30 mins by Ellman assay
Acetylcholinesterase [3] = molecular target: T1, Acetylcholinesterase (Homo sapiens, UniProt P22303); assay: Inhibition of human erythrocyte AChE using ATCI as substrate preincubated for 30 mins followed by substrate addition measured after 30 mins by Ellman assay
[4] = Permeability of the compound at 100 ug/ml incubated for 120 mins by PAMPA; type: ADME; details: read-out: Peff
Acetylcholinesterase [5] = molecular target: T1, Acetylcholinesterase; details: at 10 µM
Description: Inhibition of human erythrocyte AChE-induced Abeta (1 to 42) aggregation at 10 uM incubated for 24 hrs by thioflavin-T fluorescence assay

Chain of Cholinesterase (P81908 whole entry): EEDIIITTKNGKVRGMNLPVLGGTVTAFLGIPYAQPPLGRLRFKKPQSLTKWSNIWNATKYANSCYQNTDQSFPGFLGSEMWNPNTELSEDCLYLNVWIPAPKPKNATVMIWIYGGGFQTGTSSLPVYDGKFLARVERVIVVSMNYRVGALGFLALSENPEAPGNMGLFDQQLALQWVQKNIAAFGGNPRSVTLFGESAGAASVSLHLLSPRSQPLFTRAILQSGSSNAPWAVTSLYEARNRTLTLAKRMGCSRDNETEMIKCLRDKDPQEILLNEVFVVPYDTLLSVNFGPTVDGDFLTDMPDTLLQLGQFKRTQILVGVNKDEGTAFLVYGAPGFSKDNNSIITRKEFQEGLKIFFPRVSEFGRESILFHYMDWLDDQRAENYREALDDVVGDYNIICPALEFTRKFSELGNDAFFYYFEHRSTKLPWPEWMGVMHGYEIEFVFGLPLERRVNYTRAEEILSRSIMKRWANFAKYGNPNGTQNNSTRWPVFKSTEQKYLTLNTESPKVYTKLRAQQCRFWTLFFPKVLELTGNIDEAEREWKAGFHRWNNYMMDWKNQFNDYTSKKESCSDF
T1 sequence (P22303 whole entry): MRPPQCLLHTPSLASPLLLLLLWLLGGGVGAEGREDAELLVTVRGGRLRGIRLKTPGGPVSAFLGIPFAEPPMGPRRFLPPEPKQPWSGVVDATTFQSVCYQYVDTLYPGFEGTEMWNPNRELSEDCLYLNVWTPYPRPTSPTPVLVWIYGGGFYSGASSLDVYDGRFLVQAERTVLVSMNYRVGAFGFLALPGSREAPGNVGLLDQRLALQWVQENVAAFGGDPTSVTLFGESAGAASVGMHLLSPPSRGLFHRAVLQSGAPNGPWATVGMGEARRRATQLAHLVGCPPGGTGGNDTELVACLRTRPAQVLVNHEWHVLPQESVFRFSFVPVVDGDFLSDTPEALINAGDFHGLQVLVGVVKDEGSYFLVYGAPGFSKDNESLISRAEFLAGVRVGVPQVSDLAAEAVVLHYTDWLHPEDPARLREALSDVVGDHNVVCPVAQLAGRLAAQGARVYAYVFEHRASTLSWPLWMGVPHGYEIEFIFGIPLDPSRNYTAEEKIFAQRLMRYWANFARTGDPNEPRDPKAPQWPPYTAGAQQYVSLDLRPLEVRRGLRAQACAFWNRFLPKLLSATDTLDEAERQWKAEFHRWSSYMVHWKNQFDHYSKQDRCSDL

Row | Structure (SMILES) | viability at 24 h, 40 µM (in vitro [1]; SH-SY5Y cells) [%] | viability at 24 h, 80 µM (in vitro [2]; SH-SY5Y cells) [%] | IC50 (Cholinesterase) [µM] | IC50 (Acetylcholinesterase [3]) [µM] | Papp at 2 h, 100 ug/ml [4] [nm/s] | inhibition (Acetylcholinesterase [5]) [%] | viability at 24 h, 40 µM (in vitro [1]; sh-sy5y) [%] | viability at 24 h, 80 µM (in vitro [2]; sh-sy5y) [%]
1 | Fc1ccc(CN2CCC(Nc3nc(-c4ccc(Cl)cc4)c(-c4ccc(Cl)cc4)s3)CC2)c(Cl)c1 | 94.2 | 92.5 | 1.97 | 0.37 | 84 | 27.5 | – | –
2 | COc1ccc(CN2CCC(Nc3nc(-c4ccc(OC)cc4)c(-c4ccc(OC)cc4)s3)CC2)cc1 | 92.1 | 89.5 | 2.53 | 0.77 | 103 | 11.4 | – | –
3 | Fc1cc(F)cc(CN2CCC(CNc3nc(-c4ccc(Cl)cc4)c(-c4ccc(Cl)cc4)s3)CC2)c1 | 92.4 | 91.7 | 0.82 | 0.63 | 125 | 19.4 | – | –
4 | O=C(Nc1nc(-c2ccc(Cl)cc2)c(-c2ccc(Cl)cc2)s1)C1CCN(Cc2ccc(F)cc2Cl)CC1 | – | – | > 10 | 3.7 | – | – | – | –
5 | COc1ccc(-c2nc(NC3CCN(Cc4ccc(C)cc4)CC3)sc2-c2ccc(OC)cc2)cc1 | 95.4 | 89.5 | 2.25 | 0.83 | 96 | 19.2 | – | –
6 | COc1cc2c(cc1OC)C(=O)C(CC1CCN(Cc3ccccc3)CC1)C2 (centres undefined) [DONEPEZIL] | – | – | – | – | – | – | 96.9 | 92.3
7 | Cc1ccc(-c2nc(NC3CCN(Cc4ccccc4)CC3)sc2-c2ccc(C)cc2)cc1 | – | – | 3.59 | 1.28 | – | – | – | –
8 | COc1ccc(CN2CCC(Nc3nc(-c4ccc(Cl)cc4)c(-c4ccc(Cl)cc4)s3)CC2)cc1 | – | – | 1.57 | 1.12 | – | – | – | –
9 | COc1ccc(-c2nc(NC(=O)C3CCN(Cc4ccccc4C(F)(F)F)CC3)sc2-c2ccc(OC)cc2)cc1 | 92.4 | 93.1 | 1.92 | 0.68 | 123 | 14.5 | – | –
10 | COc1ccc(-c2nc(NCC3CCN(Cc4ccccc4C(F)(F)F)CC3)sc2-c2ccc(OC)cc2)cc1 | 94.2 | 90.1 | 8.01 | 0.69 | 84 | 20.6 | – | –
11 | COc1ccc(-c2nc(NC(=O)C3CCN(Cc4ccc(F)cc4)CC3)sc2-c2ccc(OC)cc2)cc1 | – | – | 1.73 | 1.16 | – | – | – | –
12 | Cc1ccc(-c2nc(NC(=O)C3CCN(Cc4ccccc4C(F)(F)F)CC3)sc2-c2ccc(C)cc2)cc1 | – | – | 1.88 | 7.57 | – | – | – | –
13 | Cc1ccccc1CN1CCC(CNc2nc(-c3ccc(Cl)cc3)c(-c3ccc(Cl)cc3)s2)CC1 | 95.4 | 90.9 | 1.43 | 0.87 | 88 | 23.3 | – | –
14 | COc1ccc(-c2nc(NCC3CCN(Cc4c(F)cccc4Cl)CC3)sc2-c2ccc(OC)cc2)cc1 | 94.2 | 87.1 | 2.15 | 0.36 | 122 | 27.2 | – | –
15 | Cc1ccc(-c2nc(NC(=O)C3CCN(Cc4ccc([N+](=O)[O-])cc4)CC3)sc2-c2ccc(C)cc2)cc1 | – | – | > 10 | 2.32 | – | – | – | –
16 | COc1ccc(-c2nc(NC(=O)C3CCN(Cc4c(F)cccc4Cl)CC3)sc2-c2ccc(OC)cc2)cc1 | 92.9 | 91.6 | 1.57 | 0.41 | 82 | 16.6 | – | –
17 | COc1ccc(-c2nc(NC(=O)C3CCN(Cc4ccccc4C)CC3)sc2-c2ccc(OC)cc2)cc1 | – | – | 1.85 | 1.34 | – | – | – | –
18 | COc1ccc(-c2nc(NCC3CCN(Cc4ccccc4C)CC3)sc2-c2ccc(OC)cc2)cc1 | 91.6 | 87.2 | 2.21 | 0.59 | 123 | 25.6 | – | –
19 | Fc1ccc(CN2CCC(CNc3nc(-c4ccc(Cl)cc4)c(-c4ccc(Cl)cc4)s3)CC2)c(C(F)(F)F)c1 | – | – | 3.3 | 1.24 | – | – | – | –
20 | Cc1ccc(-c2nc(NC(=O)C3CCN(Cc4cccc(F)c4)CC3)sc2-c2ccc(C)cc2)cc1 | – | – | 1.97 | > 10 | – | – | – | –
21 | O=C(Nc1nc(-c2ccc(Cl)cc2)c(-c2ccc(Cl)cc2)s1)C1CCN(Cc2cccc(F)c2)CC1 | 93.6 | 91.1 | 0.72 | 0.65 | 159 | 18.8 | – | –

Row | Structure (SMILES) | viability at 24 h, 40 µM (in vitro [1]; SH-SY5Y cells) [%] | viability at 24 h, 80 µM (in vitro [2]; SH-SY5Y cells) [%] | IC50 (Cholinesterase) [µM] | IC50 (Acetylcholinesterase [3]) [µM] | Papp at 2 h, 100 ug/ml [4] [nm/s] | inhibition (Acetylcholinesterase [5]) [%] | viability at 24 h, 40 µM (in vitro [1]; sh-sy5y) [%] | viability at 24 h, 80 µM (in vitro [2]; sh-sy5y) [%]
22 | Cc1ccc(-c2nc(NC(=O)C3CCN(Cc4ccc(F)cc4Cl)CC3)sc2-c2ccc(C)cc2)cc1 | – | – | 1.6 | > 10 | – | – | – | –
23 | COc1ccc(-c2nc(NC(=O)C3CCN(Cc4ccc(F)cc4C(F)(F)F)CC3)sc2-c2ccc(OC)cc2)cc1 | – | – | 1.78 | 1.23 | – | – | – | –
24 | N#Cc1ccccc1CN1CCC(C(=O)Nc2nc(-c3ccc(Cl)cc3)c(-c3ccc(Cl)cc3)s2)CC1 | – | – | 1.59 | 1.77 | – | – | – | –
25 | Cc1ccc(-c2nc(NCC3CCN(Cc4ccccc4C(F)(F)F)CC3)sc2-c2ccc(C)cc2)cc1 | 93.5 | 91.7 | 2.2 | 0.4 | 128 | 26.4 | – | –
26 | COc1ccc(-c2nc(NC(=O)C3CCN(Cc4cccc(F)c4)CC3)sc2-c2ccc(OC)cc2)cc1 | 94 | 90.3 | 1.54 | 0.57 | 125 | 21.2 | – | –
27 | Cc1ccc(CN2CCC(Nc3nc(-c4ccc(Cl)cc4)c(-c4ccc(Cl)cc4)s3)CC2)cc1 | – | – | > 10 | 3.19 | – | – | – | –
28 | Cc1ccc(-c2nc(NC(=O)C3CCN(Cc4cc(F)cc(F)c4)CC3)sc2-c2ccc(C)cc2)cc1 | – | – | 3.51 | 2.5 | – | – | – | –
29 | Clc1ccc(-c2nc(NC3CCN(Cc4ccccc4)CC3)sc2-c2ccc(Cl)cc2)cc1 | – | – | 3.3 | 1.38 | – | – | – | –
30 | Cc1ccc(CN2CCC(Nc3nc(-c4ccc(C)cc4)c(-c4ccc(C)cc4)s3)CC2)cc1 | – | – | 6.03 | 1.09 | – | – | – | –
31 | COc1ccc(-c2nc(NC(=O)C3CCN(Cc4ccccc4C#N)CC3)sc2-c2ccc(OC)cc2)cc1 | – | – | 3.58 | 2.8 | – | – | – | –
32 | Cc1ccc(-c2nc(NC(=O)C3CCN(Cc4ccc(C#N)cc4)CC3)sc2-c2ccc(C)cc2)cc1 | – | – | 5.32 | 1.28 | – | – | – | –
33 | O=C(Nc1nc(-c2ccc(Cl)cc2)c(-c2ccc(Cl)cc2)s1)C1CCN(Cc2ccc(OC(F)(F)F)cc2)CC1 | – | – | 2.18 | 1.38 | – | – | – | –
34 | Cc1ccccc1CN1CCC(C(=O)Nc2nc(-c3ccc(Cl)cc3)c(-c3ccc(Cl)cc3)s2)CC1 | – | – | 1.04 | 1.1 | – | – | – | –
35 | Cc1ccc(-c2nc(NC(=O)C3CCN(Cc4c(F)cccc4Cl)CC3)sc2-c2ccc(C)cc2)cc1 | – | – | 2.77 | 2.88 | – | – | – | –
36 | N#Cc1ccc(CN2CCC(Nc3nc(-c4ccc(Cl)cc4)c(-c4ccc(Cl)cc4)s3)CC2)cc1 | – | – | 1.72 | 1.02 | – | – | – | –
37 | O=C(Nc1nc(-c2ccc(Cl)cc2)c(-c2ccc(Cl)cc2)s1)C1CCN(Cc2ccccc2C(F)(F)F)CC1 | – | – | 3.36 | 2.77 | – | – | – | –
38 | COc1ccc(-c2nc(NC3CCN(Cc4ccc(C(F)(F)F)cc4)CC3)sc2-c2ccc(OC)cc2)cc1 | 94.5 | 90.4 | 1.68 | 0.75 | 86 | 18.9 | – | –
39 | Cc1ccc(-c2nc(NCC3CCN(Cc4ccccc4C)CC3)sc2-c2ccc(C)cc2)cc1 | 91.4 | 90.1 | 2.51 | 0.5 | 106 | 16.2 | – | –
40 | COc1ccc(-c2nc(NC(=O)C3CCN(Cc4cc(F)cc(F)c4)CC3)sc2-c2ccc(OC)cc2)cc1 | – | – | > 10 | 2.45 | – | – | – | –
41 | Cc1ccc(-c2nc(NC(=O)C3CCN(Cc4ccccc4C)CC3)sc2-c2ccc(C)cc2)cc1 | – | – | 1.5 | > 10 | – | – | – | –
42 | Cc1ccc(-c2nc(NC(=O)C3CCN(Cc4ccc(C(F)(F)F)cc4)CC3)sc2-c2ccc(C)cc2)cc1 | – | – | 2.78 | > 10 | – | – | – | –

From ChEMBL document CHEMBL4477206, “Benzylpiperidine-Linked Diarylthiazoles as Potential Anti-Alzheimer's Agents: Synthesis and Biological Evaluation” (J Med Chem, 2016)
